The values below come from the NIST ThermoML archive (doi:10.1016/j.fluid.2006.05.029).

For series [1] the following is noted: 298.15 K, 101.33 kPa, Liquid.
Series [2] in a line: refractive index (Na D-line) (dimensionless). The note with it: 298.15 K; 101.33 kPa; Liquid; Standard Abbe refractometry.

Numbers after ± are expanded uncertainties.

Regarding `COC(=O)OC` [dimethyl carbonate], the mass density (usually the mass of a sample divided by its volume) in series [1] was 1063.33 ± 1.3 kg/m3. Besides, the refractive index (in general, the speed of light in vacuum divided by its phase velocity in the sample) in series [2] is given as 1.3672 ± 0.0008.
Consider `CO` [methanol], for which the mass density in series [1] (Pycnometric method) is 786.49 ± 0.71 kg/m3. Moreover, the refractive index in series [2] amounted to 1.3262 ± 0.0007.
